Tested on: Crabgrass (Digitaria sp.)
Assay: Post-emergence control of crabgrass in greenhouse pots, application at the 1-2 leaf growth stage
Assay type: in vivo
Protocol: The compositions of the present invention were tested for herbicidal efficacy in the following manner:
For post-emergence testing, three disposable 3 inch square pots for each rate of application of each herbicide solution were filled with a soil, comprised of peat moss, vermiculite, bark ash, pine bark, limestone and a wetting agent (Metro Mix® 360 artificial soil, Scotts Company, Marysville, Ohio), to which about 20 to 30 crabgrass seeds (Digitaria sp.) seeds were planted. The pots were placed in a greenhouse and watered daily, thus allowing the seeds to germinate and the foliage to develop for 11 days, until the crabgrass was at the 1-2 leaf growth stage.
Pots designated for treatment were placed on a conveyor belt and the conveyor belt fed under a spray nozzle mounted about ten inches above the postemergent foliage. The spray of herbicidal solution was commenced and once stabilized; the pots were passed under the spray at a speed to receive a coverage equivalent of 30 gallons per acre. The application rates are those shown in Table 1 below for the individual herbicidal solutions and the herbicide compositions of the present invention. The post-emergence pots were immediately placed in the green-house and not watered for 24 hours after treatment. Thereafter they were regularly watered at ground level. The control of crabgrass was evaluated in each experimental test from 1 to 22 days after treatment (DAT). The results, shown as an average of the replications, were compared with results observed in untreated control pots in the same tests. All test treatments contained 0.25% (by volume) of a non-ionic surfactant.
Percent control was determined by comparing the treated plants to the untreated control using the following rating system:
The results, shown as an average of the replications, were compared with results observed in untreated control plots in the same trials.

SMILES | Average % control (0.25 lb AI/Acre, 1 DAT) | Average % control (0.25 lb AI/Acre, 3 DAT) | Average % control (0.25 lb AI/Acre, 7 DAT) | Average % control (0.25 lb AI/Acre, 14 DAT) | Average % control (0.25 lb AI/Acre, 22 DAT) | Average % control (0.375 lb AI/Acre, 1 DAT) | Average % control (0.375 lb AI/Acre, 3 DAT) | Average % control (0.375 lb AI/Acre, 7 DAT) | Average % control (0.375 lb AI/Acre, 14 DAT) | Average % control (0.375 lb AI/Acre, 22 DAT) | Average % control (0.75 lb AI/Acre, 1 DAT) | Average % control (0.75 lb AI/Acre, 3 DAT) | Average % control (0.75 lb AI/Acre, 7 DAT) | Average % control (0.75 lb AI/Acre, 14 DAT) | Average % control (0.75 lb AI/Acre, 22 DAT)
Cc1nn(-c2cc(NS(C)(=O)=O)c(Cl)cc2Cl)c(=O)n1C(F)F [A, N-[2,4-dichloro-5-[4-(difluoromethyl)-4,5-dihydro-3-methyl-5-oxo-1H-1,2,4-triazol-1-yl]phenyl]methanesulfonamide] | 20% | 20% | 5% | 0% | 0% | 10% | 25% | 10% | 0% | 0% |  |  |  |  | 
CCCN(CCC)c1c([N+](=O)[O-])cc(C(F)(F)F)c(N)c1[N+](=O)[O-] [B, 2,4-dinitro-N^3,N^3-dipropyl-6-(trifluoromethyl)-1,3-benzenediamine] |  |  |  |  |  |  |  |  |  |  | 0% | 0% | 0% | 0% | 0%

Reference: patent US9034794B2, “Method for post-emergence crabgrass control” (FMC Corporation, priority 2007, dated 2015)
